Each molecule was assayed against TARP γ8 dependent AMPA receptor (GRIA1o-CACNG8 fusion construct) (Homo sapiens (Human), UniProt P42261+Q8WXS5) (assay: Calcium flux assay (FLIPR), inhibition of glutamate response of GluA1o-γ8 channel). Details: HEK293 cells stably expressing GRIA1o-CACNG8 fusion; calcium flux after 15 μM glutamate; negative log of the IC50 in molar.
Format: cell-based
Source text: This assay was used to test compounds for their ability to inhibit TARP γ8 dependent AMPA receptor activity. The AMPA receptor is a non-selective cation channel activated by glutamate. […] But, this desensitization is incomplete, and a substantial steady-state current remains in the sustained presence of glutamate (Cho et al. (2007). “Two families of TARP isoforms that have distinct effects on the kinetic properties of AMPA receptors and synaptic currents.” Neuron 55(6): 890-904).
An in vitro assay was used to determine the potency of test compounds as inhibitors of the glutamate response of the channel formed by GluA10-γ8. To ensure a 1:1 stoichiometry of GluA1o and γ8 subunits in the expressed channel, a fusion of the cDNAs for GRIA1o and CACNG8 was used. Following Shi et al (2009) “The stoichiometry of AMPA receptors and TARPs varies by neuronal cell type.” Neuron 62(5): 633-640), the C-terminus of the cDNA for GRIA1o was fused to the N-terminus of the cDNA for γ8. The linker sequence was […]. Channels expressed with this construct appear to have similar properties to channels formed by co-expression of GRIA1o with an excess of CACNG8 (Shi et al. 2009). A clonal cell line in HEK293 cells stably expressing this construct, with a geneticin selection marker, was generated for use in this assay.
Cell expressing the GRIA1o-CACNG8 fusion construct were grown in a monolayer in 96- or 384-well microtiter plates. They were washed with assay buffer (135 mM NaCl, 4 mM KCl, 3 mM CaCl2, 1 mM MgCl2, 5 mM glucose, 10 mM HEPES, pH 7.4, 300 mOs) using a Biotek EL405 plate washer. The cells were then loaded with a calcium-sensitive dye (Calcium-5 or Calcium-6, Molecular Devices) and the test compounds at a range of concentrations. Calcium flux following the addition of 15 μM glutamate was monitored using a Molecular Devices FLIPR Tetra.
The fluorescence in each well was normalized to the fluorescence of negative and positive control wells. The negative control wells had no added compounds, and the positive control wells had been incubated with 10 μM CP465022 (a non-subtype-selective AMPA receptor antagonist) (Lazzaro et al. (2002). “Functional characterization of CP-465,022, a selective, noncompetitive AMPA receptor antagonist.” Neuropharmacology 42(2): 143-153). The responses to glutamate as functions of the test compound concentrations were fitted to a four-parameter logistic function. The fitted parameter corresponding to the midpoint was taken to be the potency of inhibition of the compound. The data in Table 4 below illustrates the observed potency for the compounds described herein. pIC50 refers to the negative log of the IC50 in molar.

Chain of TARP γ8 dependent AMPA receptor (GRIA1o-CACNG8 fusion construct) (P42261 other isoform, or with tags, fused parts or gaps): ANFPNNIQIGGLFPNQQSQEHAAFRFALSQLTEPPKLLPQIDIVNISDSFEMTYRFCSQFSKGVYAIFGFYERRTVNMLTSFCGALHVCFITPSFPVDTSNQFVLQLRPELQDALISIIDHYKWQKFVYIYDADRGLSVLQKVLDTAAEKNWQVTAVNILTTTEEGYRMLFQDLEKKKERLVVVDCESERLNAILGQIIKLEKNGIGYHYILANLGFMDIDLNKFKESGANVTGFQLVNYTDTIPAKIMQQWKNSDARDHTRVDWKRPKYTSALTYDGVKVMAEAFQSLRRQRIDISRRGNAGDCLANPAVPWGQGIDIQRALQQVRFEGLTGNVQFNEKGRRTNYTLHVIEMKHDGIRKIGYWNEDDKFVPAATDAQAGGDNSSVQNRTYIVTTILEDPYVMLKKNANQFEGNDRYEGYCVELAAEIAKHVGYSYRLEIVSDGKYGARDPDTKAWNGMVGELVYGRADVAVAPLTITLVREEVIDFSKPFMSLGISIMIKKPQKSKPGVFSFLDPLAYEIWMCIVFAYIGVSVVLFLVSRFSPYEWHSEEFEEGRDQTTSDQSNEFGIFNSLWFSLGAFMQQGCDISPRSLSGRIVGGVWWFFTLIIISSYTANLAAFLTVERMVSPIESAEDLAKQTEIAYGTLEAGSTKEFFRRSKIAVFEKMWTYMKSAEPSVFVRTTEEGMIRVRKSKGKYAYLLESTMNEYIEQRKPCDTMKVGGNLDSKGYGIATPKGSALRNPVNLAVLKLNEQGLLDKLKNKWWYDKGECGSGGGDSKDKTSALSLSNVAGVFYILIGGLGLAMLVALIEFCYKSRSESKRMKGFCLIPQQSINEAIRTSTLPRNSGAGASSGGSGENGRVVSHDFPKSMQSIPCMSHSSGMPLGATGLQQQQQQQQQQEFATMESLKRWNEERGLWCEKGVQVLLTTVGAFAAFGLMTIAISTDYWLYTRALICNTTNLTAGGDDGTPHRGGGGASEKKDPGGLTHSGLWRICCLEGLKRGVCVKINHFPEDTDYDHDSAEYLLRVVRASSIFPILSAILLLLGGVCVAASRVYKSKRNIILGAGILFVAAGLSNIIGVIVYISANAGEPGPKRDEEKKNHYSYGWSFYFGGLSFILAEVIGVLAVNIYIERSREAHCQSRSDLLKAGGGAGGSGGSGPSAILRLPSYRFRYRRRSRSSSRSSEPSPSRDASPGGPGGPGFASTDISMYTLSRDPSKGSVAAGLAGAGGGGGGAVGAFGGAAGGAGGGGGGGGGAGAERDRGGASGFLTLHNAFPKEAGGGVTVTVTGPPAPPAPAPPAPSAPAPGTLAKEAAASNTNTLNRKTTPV

IC50 | pIC50 | Compound
3.98 nM | – | CCc1nc2ccc(C(F)F)c(-c3cc(C)c4c(c3)CC(=O)N4)n2n1 [Example 47, 5-(6-(Difluoromethyl)-2-ethyl-[1,2,4]triazolo[1,5-a]pyridin-5-yl)-7-methylindolin-2-one]
2.51 nM | – | CCOc1nc2c(C)cc(C(F)(F)F)c(-c3cc(Cl)c4[nH]ncc4c3)n2n1 [Example 117, 5-(7-Chloro-1H-indazol-5-yl)-2-ethoxy-8-methyl-6-(trifluoromethyl)-[1,2,4]triazolo[1,5-a]pyridine]
0.158 nM | – | Cc1cc(-c2c(C(F)F)ccc3nc(C(F)(F)F)nn23)cc2cn[nH]c12 [Example 17, 6-(Difluoromethyl)-5-(7-methyl-1H-indazol-5-yl)-2-(trifluoromethyl)-[1,2,4]triazolo[1,5-a]pyridine]
1 nM | – | COc1ccc2nc(C(F)(F)F)nn2c1-c1cc(Cl)c2[nH]ncc2c1 [Example 50, 5-(7-Chloro-1H-indazol-5-yl)-6-methoxy-2-(trifluoromethyl)-[1,2,4]triazolo[1,5-a]pyridine]
0.0501 nM | – | Cc1cc(-c2c(C(F)F)cc(C)c3cc(C(F)(F)F)nn23)cc2c1NC(=O)C2 [Example 122, 5-[6-(Difluoromethyl)-4-methyl-2-(trifluoromethyl)pyrazolo[1,5-a]pyridin-7-yl]-7-methyl-indolin-2-one]
0.316 nM | – | FC(F)(F)c1nc2c(Cl)cc(C(F)(F)F)c(-c3cc(Cl)c4[nH]ncc4c3)n2n1 [Example 5, 8-Chloro-5-(7-chloro-1H-indazol-5-yl)-2,6-bis(trifluoromethyl)-[1,2,4]triazolo[1,5-a]pyridine]
5.01 nM | – | COc1ccc2nc(C(F)F)nn2c1-c1cc(Cl)c2[nH]ncc2c1 [Example 13, 5-(7-Chloro-1H-indazol-5-yl)-2-(difluoromethyl)-6-methoxy-[1,2,4]triazolo[1,5-a]pyridine]
2 nM | – | CCc1nc2c(C)cc(C(F)F)c(-c3cc(Cl)c4[nH]ncc4c3)n2n1 [Example 115, 5-(7-Chloro-1H-indazol-5-yl)-6-(difluoromethyl)-2-ethyl-8-methyl-[1,2,4]triazolo[1,5-a]pyridine]
– | 10.2 | FC(F)(F)c1ccc2cc(C3CC3)nn2c1-c1cc(Cl)c2[nH]ncc2c1 [Example 118, 7-Chloro-5-(2-cyclopropyl-6-(trifluoromethyl)pyrazolo[1,5-a]pyridin-7-yl)-1H-indazole]
0.398 nM | – | CCCc1nc2c(Cl)cc(C(F)(F)F)c(-c3cc(Cl)c4[nH]ncc4c3)n2n1 [Example 96, 8-Chloro-5-(7-chloro-1H-indazol-5-yl)-2-propyl-6-(trifluoromethyl)-[1,2,4]triazolo[1,5-a]pyridine]
1.26 nM | – | Cc1nc2ccc(-c3ccc(F)cc3)c(-c3cc(C)c4[nH]ncc4c3)n2n1 [Example 60, 6-(4-Fluorophenyl)-2-methyl-5-(7-methyl-1H-indazol-5-yl)-[1,2,4]triazolo[1,5-a]pyridine]
0.1 nM | – | Cc1cc(C(F)F)c(-c2cc(Cl)c3[nH]ncc3c2)n2nc(C(F)(F)F)cc12 [Example 125, 7-(7-Chloro-1H-indazol-5-yl)-6-(difluoromethyl)-4-methyl-2-(trifluoromethyl)pyrazolo[1,5-a]pyridine]
0.0126 nM | – | CC(C)c1cc2ccc(C(F)(F)F)c(-c3cc(Cl)c4c(c3)CC(=O)N4)n2n1 [Example 72, 5-(2-Isopropyl-6-(trifluoromethyl)pyrazolo[1,5-a]pyridin-7-yl)-7-chloroindolin-2-one]
0.2 nM | – | Cc1cc(C(F)(F)F)c(-c2cc(Cl)c3[nH]ncc3c2)n2nc(C(F)(F)F)nc12 [Example 6, 5-(7-Chloro-1H-indazol-5-yl)-8-methyl-2,6-bis(trifluoromethyl)-[1,2,4]triazolo[1,5-a]pyridine]
0.316 nM | – | CCc1cc(C(F)(F)F)c(-c2cc(C)c3c(c2)CC(=O)N3)n2nc(C3CC3)nc12 [Example 82, 5-(2-Cyclopropyl-8-ethyl-6-(trifluoromethyl)-[1,2,4]triazolo[1,5-a]pyridin-5-yl)-7-methylindolin-2-one]
0.501 nM | – | Cc1cc(-c2c(C(F)(F)F)ccc3nc(C(F)(F)F)nn23)cc2c1NC(=O)C2 [Example 4, 5-(2,6-Bis(trifluoromethyl)-[1,2,4]triazolo[1,5-a]pyridin-5-yl)-7-methylindolin-2-one]

IC50 | pIC50 | Compound
3.98 nM | – | CCc1nc2ccc(C(F)F)c(-c3cc(Cl)c4c(c3)CC(=O)N4)n2n1 [Example 46, 7-Chloro-5-(6-(difluoromethyl)-2-ethyl-[1,2,4]triazolo[1,5-a]pyridin-5-yl)indolin-2-one]
6.31 nM | – | Cc1cc(-c2c(-c3ccncc3)ccc3nc(C(F)(F)F)nn23)cc2cn[nH]c12 [Example 59, 5-(7-Methyl-1H-indazol-5-yl)-6-(pyridin-4-yl)-2-(trifluoromethyl)-[1,2,4]triazolo[1,5-a]pyridine]
– | 9.6 | Cc1cc(C(F)F)c(-c2cc(Cl)c3[nH]ncc3c2)n2nc(C(F)(F)F)nc12 [Example 109, 5-(7-Chloro-1H-indazol-5-yl)-6-(difluoromethyl)-8-methyl-2-(trifluoromethyl)-[1,2,4]triazolo[1,5-a]pyridine]
0.398 nM | – | Cc1cc(-c2c(C(F)F)cc(C)c3nc(C4CC4)nn23)cc2cn[nH]c12 [Example 114, 2-Cyclopropyl-6-(difluoromethyl)-8-methyl-5-(7-methyl-1H-indazol-5-yl)-[1,2,4]triazolo[1,5-a]pyridine]
0.0794 nM | – | CC(C)c1nc2ccc(C(F)(F)F)c(-c3cc(Cl)c4[nH]ncc4c3)n2n1 [Example 36, 5-(7-Chloro-1H-indazol-5-yl)-2-isopropyl-6-(trifluoromethyl)-[1,2,4]triazolo[1,5-a]pyridine]
0.316 nM | – | CCCc1nc2c(C)cc(C(F)(F)F)c(-c3cc(C)c4c(c3)CC(=O)N4)n2n1 [Example 85, 7-Methyl-5-(8-methyl-2-propyl-6-(trifluoromethyl)-[1,2,4]triazolo[1,5-a]pyridin-5-yl)indolin-2-one]
1.26 nM | – | Fc1ccc(-c2ccc3nc(C(F)(F)F)nn3c2-c2ccc3[nH]ncc3c2)cc1 [Example 56, 6-(4-Fluorophenyl)-5-(1H-indazol-5-yl)-2-(trifluoromethyl)-[1,2,4]triazolo[1,5-a]pyridine]
0.0501 nM | – | Cc1cc(-c2c(C(F)(F)F)ccc3cc(C4CC4)nn23)cc2cn[nH]c12 [Example 69, 5-(2-Cyclopropyl-6-(trifluoromethyl)pyrazolo[1,5-a]pyridin-7-yl)-7-methyl-1H-indazole]
1.26 nM | – | COc1cc(-c2c(C(F)(F)F)cc(C)c3nc(C(F)(F)F)nn23)cc2c1NC(=O)C2 [Example 106, 7-Methoxy-5-(8-methyl-2,6-bis(trifluoromethyl)-[1,2,4]triazolo[1,5-a]pyridin-5-yl)indolin-2-one]
0.0631 nM | – | FC(F)c1nc2ccc(C(F)(F)F)c(-c3cc(Cl)c4[nH]ncc4c3)n2n1 [Example 7, 5-(7-Chloro-1H-indazol-5-yl)-2-(difluoromethyl)-6-(trifluoromethyl)-[1,2,4]triazolo[1,5-a]pyridine]
0.251 nM | – | O=C1Cc2cc(-c3c(C(F)F)ccc4nc(C(F)(F)F)nn34)cc(Cl)c2N1 [Example 18, 7-Chloro-5-(6-(difluoromethyl)-2-(trifluoromethyl)-[1,2,4]triazolo[1,5-a]pyridin-5-yl)indolin-2-one]
0.2 nM | – | CCCc1nc2c(C)cc(C(F)(F)F)c(-c3cc(Cl)c4[nH]ncc4c3)n2n1 [Example 83, 5-(7-Chloro-1H-indazol-5-yl)-8-methyl-2-propyl-6-(trifluoromethyl)-[1,2,4]triazolo[1,5-a]pyridine]
0.2 nM | – | FC(F)c1ccc2nc(C3CC3)nn2c1-c1cc(Cl)c2[nH]ncc2c1 [Example 48, 5-(7-Chloro-1H-indazol-5-yl)-2-cyclopropyl-6-(difluoromethyl)-[1,2,4]triazolo[1,5-a]pyridine]
0.158 nM | – | Cc1cc(-c2c(C(F)(F)F)cc(C)c3nc(C4CC4)nn23)cc2cn[nH]c12 [Example 76, 2-Cyclopropyl-8-methyl-5-(7-methyl-1H-indazol-5-yl)-6-(trifluoromethyl)-[1,2,4]triazolo[1,5-a]pyridine]
0.01 nM | – | CC(C)c1cc2ccc(C(F)(F)F)c(-c3cc(Cl)c4[nH]ncc4c3)n2n1 [Example 73, 7-Chloro-5-(2-isopropyl-6-(trifluoromethyl)pyrazolo[1,5-a]pyridin-7-yl)-1H-indazole]
